Measured values from PMC10603992, “Antimicrobial and Adjuvant Potencies of Di-n-alkyl Substituted Diazalariat Ethers” (Antibiotics, 2023).
Values after ≈ are worked out from the molar mass of the structure shown. Read-outs that look alike come from different tables or passages of the source.

How the values were obtained:
K12 E. coli = experiment: MIC against K12 E. coli; assay type: cell-based; conditions: Escherichia coli
DH5α E. coli [1] = test system: DH5α E. coli; design: method as in PMID 15858645; conditions: free bases, previously reported data; cited from earlier work
[2] = Dynamic light scattering of C12LE aggregation; assay type: physicochemical; conditions: for Slope of C12LE aggregation (DLS particle size): water, in the presence of the antimicrobial or C12LE alone
Protocol: It is known that dialkyldiazacrowns form stable aggregates in aqueous solution [57, 62]. It was hypothesized that complexation between antimicrobials and macrocycles would alter or prevent the ability of the complex to form aggregates. […] Indeed, the particle sizes observed when chlortetracycline is present was almost indistinguishable from particle formation by C12LE (4) alone.
Measurements were performed on a Brookhaven Instruments Corp. ZetaPALS instrument at 25 °C using a 660 nm laser and correlating scattering at 90°. Samples were prepared by initially dissolving the amphiphile in filtered DMSO obtained from ThermoFisher. Next, they were diluted into 1× PBS such that DMSO was fixed at 0.5% in 15 mL sterile conical tubes. 10× PBS was obtained commercially, then diluted 10-fold in MQ H2O. The mixture was vortexed and incubated at room temperature for 2 h, then transferred to a clean quartz cuvette and equilibrated in the instrument for 10 min at 25 °C. Ten measurements consisting of 2 min runs were made on each sample. The average effective diameter was calculated with standard error reported for at least three trials.

DH5α E. coli [3] = experiment: MIC against DH5α E. coli; assay type: cell-based; conditions: Escherichia coli, no additional antimicrobial; MICs in table limited to […]; read-out: Minimum inhibitory concentration against DH5α E. coli
S. aureus 1199B = experiment: MIC against S. aureus 1199B; assay type: cell-based, Staphylococcus aureus; conditions: Staphylococcus aureus, 1199B, read-out: MIC S. aureus 1199B, MHII media, 90% growth inhibition
[4] = Turbidimetric solubility limit in MHII or PBS; assay type: physicochemical; conditions: 37 °C, kinetic from dmso stock, DMSO ≤0.5%
Tet^R E. coli = experiment: MIC against Tet^R E. coli; assay type: cell-based; conditions: Escherichia coli, read-out: MIC Tet^R E. coli
S. aureus = experiment: MIC against S. aureus under various pH and media conditions; assay type: cell-based, Staphylococcus aureus; conditions: for MIC: Staphylococcus aureus
[5] = test system: human embryonic kidney (HEK-293) cells; experiment: Cytotoxicity against HEK-293 cells; assay type: cell-based; conditions: three independent trials
From the text: (§1) The potential toxicity of 1–6 is a critical factor in their application either as an antimicrobial or an adjuvant. In vitro toxicity studies were therefore conducted using human embryonic kidney (HEK-293) and simian kidney (COS-7) cells. The graphs shown in Figure 20 show the percentage survival of each cell type as a function of lariat ether concentration on the logarithmic x-axis. In each graph, the IC50 value is specified for each compound and cell type. The value of IC50 is the concentration of lariat ether that inhibits the growth of 50% of the cells studied.
(§2) The cytotoxicity experiments were conducted as described in [44].

[6] = test system: simian kidney (COS-7) cells; experiment: Cytotoxicity against COS-7 cells; assay type: cell-based; conditions: Chlorocebus aethiops, COS-7, percentage survival, three independent trials
From the text: as §1, §2

S. aureus (1199B) = experiment: Membrane permeability (propidium iodide / alamar blue); assay type: cell-based, Staphylococcus aureus; conditions: compound at ½ MIC
Protocol: Membrane permeability was assessed by using the dyes propidium iodide and alamar blue. […] However, when PI does enter a cell, it intercalates within the DNA structure. […] When intercalation occurs, a strong fluorescent emission can be detected. Alamar blue, based on resazurin, is a nontoxic weakly fluorescent dye that is sensitive to reduction potential within vital cells. When reduced, it is converted into highly fluorescent resorufin (7-hydroxy-3H-phenoxazin-3-one).
The combination of alamar blue and propidium iodide allowed us to assess the membrane permeability of S. aureus while confirming cellular vitality. Results of the PI/alamar blue studies with S. aureus are summarized in the graph of Figure 5. When S. aureus (1199B) was exposed to the two dyes, penetration of PI was relatively low and cellular vitality remained high. […] In general, cellular penetration and vitality correlated.
Membrane permeability studies were conducted as detailed in [48].

[7] = MHII media, 90% growth inhibition, read-out: MIC K12 E. coli

CCCCCCCCCCCCCCN1CCOCCOCCN(CCCCCCCCCCCCCC)CCOCCOCC1 [n-tetradecyl LE]
MIC (K12 E. coli; read-out: MIC K12 E. coli, MHII media, 90% growth inhibition): ≥ 128 µM
Minimum inhibitory concentration against DH5α E. coli (DH5α E. coli [1]): >128 µM

O=C(O)c1cn(C2CC2)c2cc(N3CCNCC3)c(F)cc2c1=O [Ciprofloxacin, ciprofloxacin]
Slope relative to the particle size profile of C12LE alone ([2]; DLS): about 60%
Slope of C12LE aggregation (DLS particle size) [2]: 1.8

CCCCCCCCCCCCCC[N+]1(C)CCOCCOCC[N+](C)(CCCCCCCCCCCCCC)CCOCCOCC1 (centres unmarked) [n-tetradecyl LE•MeI]
MIC (DH5α E. coli [3]): > 128 µM

CCn1cc(C(=O)O)c(=O)c2cc(F)c(N3CCNCC3)cc21 [Norfloxacin, reference compound]
MIC (K12 E. coli; [7]): 0.125 µM (≈ 0.0399 µg/mL)
MIC (S. aureus 1199B): 64 µM (≈ 20.4 µg/mL)

CCCCCCCC[N+]1(C)CCOCCOCC[N+](C)(CCCCCCCC)CCOCCOCC1 (centres unmarked) [n-octyl LE•MeI]
MIC (DH5α E. coli [3]): > 128 µM

NC[C@H]1O[C@H](O[C@H]2[C@H](O)[C@@H](O[C@H]3O[C@H](CO)[C@@H](O)[C@H](N)[C@H]3O)[C@H](N)C[C@@H]2N)[C@H](O)[C@@H](O)[C@@H]1O [Kanamycin, kanamycin]
Slope of C12LE aggregation (DLS particle size) [2]: 2.5

CCCCCCCCCCCC[N+]1(C)CCOCCOCC[N+](C)(CCCCCCCCCCCC)CCOCCOCC1 (centres unmarked) [C12LE•2MeI (6), N,N′-Di-n-dodecyl-4-13-diaza-18-crown-6 bis(methiodide)]
MIC (DH5α E. coli [3]): 2 µM
solubility at 2 h ([4]; Mueller Hinton II broth, pH 7.3, plasma or biological fluid, Mueller Hinton II, pH 7.3, 2 h at 37 °C, read-out: Solubility limit in MHII): 1 to 2 µM
solubility at 2 h ([4]; phosphate-buffered saline, aqueous buffer, phosphate-buffered saline, 2 h at 37 °C, read-out: Solubility limit in PBS): ≥ 128 µM
MIC (K12 E. coli; [7]): 4 µM
MIC (Tet^R E. coli): 16 µM
MIC (S. aureus 1199B): 1 µM
Change in MIC as the pH was increased from 6.4 to 8.4 (S. aureus; S. aureus, Mueller Hinton medium): unchanged
MIC (S. aureus; pH 6.4, MHII, pH 6.4, read-out: MIC S. aureus, MHII pH 6.4): 2 µM
MIC (S. aureus; pH 7.4, MHII, pH 7.4, read-out: MIC S. aureus, MHII pH 7.4): 2 µM
MIC (S. aureus; pH 8.4, MHII, pH 8.4, read-out: MIC S. aureus, MHII pH 8.4): 2 µM
IC50 ([5]; Homo sapiens, HEK293, percentage survival): 11 µM
IC50 ([5]; percentage survival): ≤ 10 µM
IC50 [6]: 25 µM
PI penetration (membrane permeability) (S. aureus (1199B)): level of PI penetration similar to that observed for S. aureus alone
